According to US20100029654A1, “CARDIOVASCULAR COMPOSITIONS AND USE OF THE SAME FOR THE TREATMENT OF ALZHEIMER'S DISEASE” (MOUNT SINAI SCHOOL OF MEDICINE, priority 2006, published 2010):

What was measured:
Aβ1-40 = Aβ1-40 content in conditioned medium of primary cortico-hippocampal neuron cultures from Tg2576 mice (ELISA; primary and secondary dose-response screening); format: cell-based, mouse; conditions: for Ab1-40 (% of ctl): drug 100 μM
Procedure, shortened: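 Primary cortico-hippocampal neurons from embryonic Tg2576 mice were plated at 1.0×10^5 cells per well on poly-D-lysine-coated 96-well plates in Neurobasal with 2% B27, 0.5 mM L-glutamine and 1% penicillin-streptomycin. Cultures received drug in 1% DMSO, and Aβ1-40 in the conditioned medium was measured by BioSource ELISA 24 hours after treatment, relative to vehicle controls.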

Aβ1-42 [1] = assay: Aβ1-42 content in conditioned medium of primary cortico-hippocampal neuron cultures from Tg2576 mice (ELISA; primary and secondary dose-response screening); format: cell-based, mouse; conditions: drug 100 μM
Procedure, shortened: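 Primary cortico-hippocampal neurons from embryonic Tg2576 mouse brain were seeded on poly-D-lysine-coated 96-well plates at 1.0×10^5 cells per well in serum-free Neurobasal medium with 2% B27, 0.5 mM L-glutamine and 1% penicillin-streptomycin. For primary screening, duplicate wells received 100 μM drug (1% DMSO final). Vehicle-treated cultures served as controls, and Aβ1-42 in conditioned medium was measured by commercial ELISA.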

Tg2576 mice [2] = assay: blood pressure (systolic, diastolic, MAP) by tail-cuff; format: in vivo, mouse; conditions: Tg2576, 3 weeks
Experimental: FIG. 1 Tg2576 mice are characterized by normal blood pressure under basal conditions. Baseline measurements of systolic, diastolic blood pressure, and mean arteriole blood pressure (MAP) in ˜11 month old female Tg2576 mice. Strain-, age-, gender-matched WT mice were measured using a commercial blood pressure analysis system designed specifically for small rodents (Hatteras Instruments, NC). Following manufacturer's instruction, mice were temporarily immobilized in a restraining chamber and an inflated tail-cuff wrapped around the tail was used to measure the systolic pressure, diastolic pressure, and MAP. Each blood pressure determination was calculated as the mean of 10 individual measurements per animal (n=6-10 group).
FIG. 6A-C show body weight of mice in response to ˜3 weeks of treatment. […] FIG. 6D-F show the assessment of systolic, diastolic, and MAP blood pressure in Tg2576 mice in response to drug doses below or within the range of those prescribed in hypertension. Blood pressure measurements were conducted using a commercial blood pressure analysis system designed specifically for small rodents (Hatteras Instruments, NC). Following manufacturer's instruction, mice were temporarily immobilized in a restraining chamber and an inflated tail-cuff wrapped around the tail was used to measure pressures. Each blood pressure determination was calculated as the mean of 10 individual measurements per animal. In A-F, values represent mean±SEM values, n=3-5 mice per group. 2-tailed t-test: *P<0.05.
Assessment of blood pressure and glucose utilization. Mouse blood pressure was routinely recorded using a commercial blood pressure analysis system designed specifically for small rodents (Hatteras Instruments, NC). […] Briefly, mice were given a single dose of glucose post-prandially (i.p. 2 g/kg body weight). Blood was collected from the tail-vein periodically over a 2-hour period. Blood glycemic content was assessed using the OneTouch LifeScan System, (LifeScan, Milpitas, Calif.) following the manufacturer's instruction.

Aβ1-42 [3] = conditions: Tg2576, short-term dosing, subclinical or clinical concentrations
Experimental: Cognitive behavioral function was assessed using the Morris water maze (MWM). After completion of the MWM test, blood pressure measurements were quantified as describe in FIG. 1 legends. Following MWM testing and blood pressure assessment, mice were sacrificed for neuropathological assessment. […] C, (inset), total immunoreactive APP content normalized to β-actin signal. In C-D, bar graphs represent group mean±SEM, n=6-10 mice per group.
(§1) FIG. 7. […] Bar graphs represent group mean±SEM, n=3 mice per group. 2-tailed t-test: *P<0.05.
(§2) Assessment of AD-type amyloid neuropathology in Tg2576 mice. For quantitative assessment of Aβ peptide in the brain, frozen pulverized tissue was homogenized in 5.0 M guanidine buffer, diluted (1:10) in phosphate-buffered saline containing 0.05% (v/v) Tween-20 and 1 mM Pefabloc protease inhibitors (Roche Biochemicals, Indianapolis, Ind.), and centrifuged for 20 min at 4° C. […] Serum Aβ content was analyzed using the same ELISA Kit, following manufacturer instructions.

α-secretase = conditions: Tg2576, propranolol-HCL, neocortex
Experimental: (§3) Brain samples were homogenized in supplied buffers. Homogenate was then added to secretase-specific APP peptide conjugated to the reporter molecules EDANS and DABCYL. […] Cleavage of APP peptide by secretase physically separates the EDANS and DABCYL reporter molecules, allowing for the release of a fluorescent signal. The level of secretase enzymatic activity is proportional to the fluorometric reaction in the homogenate (R & D Systems).

β-secretase = β-secretase (Mus musculus, UniProt P56818); conditions: Tg2576, propranolol-HCL, neocortex
Chain of β-secretase (P56818 46-501): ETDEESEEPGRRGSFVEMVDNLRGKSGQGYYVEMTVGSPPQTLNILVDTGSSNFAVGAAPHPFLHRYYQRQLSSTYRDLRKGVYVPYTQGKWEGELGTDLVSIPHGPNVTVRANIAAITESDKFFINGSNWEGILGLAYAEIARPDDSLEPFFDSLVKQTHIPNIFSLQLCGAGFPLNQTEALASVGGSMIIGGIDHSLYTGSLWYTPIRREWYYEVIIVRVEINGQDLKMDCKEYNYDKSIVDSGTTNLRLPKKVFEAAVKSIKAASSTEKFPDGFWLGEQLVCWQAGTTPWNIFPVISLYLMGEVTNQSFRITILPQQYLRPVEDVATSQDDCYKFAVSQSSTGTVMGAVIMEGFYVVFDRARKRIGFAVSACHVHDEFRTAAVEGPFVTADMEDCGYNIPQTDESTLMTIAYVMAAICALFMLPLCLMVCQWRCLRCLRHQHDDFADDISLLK
Experimental: as §3

γ-secretase = conditions: Tg2576, propranolol-HCL, neocortex
Experimental: as §3

Aβ1-42 and Aβ1-40 = Aβ1-42 and Aβ1-40 content in peripheral blood (plasma, serum) by ELISA; format: in vivo, mouse
Experimental: as §1, §2

[4] = propranolol-HCL detection in brain and plasma (LC-MS); format: in vivo, mouse; conditions: Tg2576, 10 mg/kg/day in drinking water, three weeks
Experimental: In this short-term dosing study, Tg2576 mice were treated with propranolol-HCL for three-weeks at a concentration ˜3 fold lower than used for treatment of hypertension (10 mg/kg/day delivered in the drinking water). At the time of sacrifice, emicerebellum (pool from N=3 per group) was homogenized 0.4 M perchloric acid, centrifuged (3,000×g; 15 min), and the […] layer evaporated by heating (Botterblom et al., 1993), while the residual diethyl-ether and acidic aqueous layer was used for analysis. Plasma from propranolol-HCL treated mice (pooled, n=3 per group) was extracted using a modified protocol (Martin et al., 2004) mixing equal volumes of plasma in 0.1% NaOH. Propanolol-HCL was then extracted by ethyl acetate and centrifuged. The acidic […] layers were then dried, samples were analyzed by tandem liquid chromatography—mass spectrometry, and concentration was determined against an internal standard, in a range of quantification of n between 1-1,000 ng/ml.

Aβ peptides = assay: Aβ peptide profile in the brain by IP-MS; conditions: Tg2576, 10 or 60 mg/Kg/day, 3 weeks
Tg2576 mice [5] = assay: tolerability: body weight, fluid consumption, glucose tolerance
[6] = stability of valsartan salt (solid, aqueous; TLC); format: physicochemical; conditions: 50 and 200 mg/L, 3-10 week old solutions, room temperature, dark
Experimental: The solution is cooled to room temperature slowly without external cooling to discourage precipitation of the drug.
The solution was then cooled to room temperature slowly without external cooling to discourage precipitation of the drug. […] Quality was assessed in 3-10 week old solutions stored at room temperature in dark compartments. Drinking solutions for the in vivo treatments were freshly prepared twice a week. Liquid consumption and animal body weight were monitored weekly throughout the study.

[7] = Primary Screening, table sorted by Aβ1-40
[8] = primary screening, Tg2576 neuron cultures, table sorted by Aβ1-42

Row | stability of drinking solutions by TLC analysis [6] | Structure (SMILES) | Ab1-40 (% of ctl) (Aβ1-40; [7]) | reduced Aβ1-40 (Aβ1-40; primary screening, <85% of ctl) | Ab1-40 (% of ctl) (Aβ1-40; [8]) | Ab1-42 (% of ctl) (Aβ1-42 [1]; [7]) | Ab1-42 (% of ctl) (Aβ1-42 [1]; [8]) | systolic, diastolic, MAP blood pressure (Tg2576 mice [2]; doses within the range used for hypertension) | systolic, diastolic, MAP blood pressure (Tg2576 mice [2]; doses ~3 fold below the minimal hypertension dose) | steady state levels of Aβ1-42 in hippocampal formation or cerebral cortex (Aβ1-42 [3]) | α-secretase activity in the brain (α-secretase) | β-secretase activity in the brain (β-secretase) | γ-secretase activity in the brain (γ-secretase) | plasma Aβ1-42 levels (and Aβ1-40) (Aβ1-42 and Aβ1-40; Tg2576, doses ~3 fold lower than minimal hypertension dose) | plasma Aβ1-42 (and Aβ1-40) (Aβ1-42 and Aβ1-40; Tg2576, within the dosage range prescribed for hypertension) | level in the cerebellum [4] | Aβ1-34, Aβ1-37, Aβ1-38, Aβ1-39, Aβ1-40 in the brain (IP-MS) (Aβ peptides) | Aβ1-42 content in the neocortex (IP-MS) (Aβ peptides) | fluid intake (Tg2576 mice [5]; Tg2576, short-term dosing) | tolerability (body weight) (Tg2576 mice [5]; Tg2576, short-term, 3 weeks, doses ~3 fold below or within hypertension range, drinking water)
1 |  | CC(C)NCC(O)COc1cccc2ccccc12.Cl (racemic) [Propranolol Hydrochloride (+/−)] | 65.2 % of ctl | reduced Aβ1-40 | 65.2 % of ctl | 93.4 % of ctl | 93.4 % of ctl | decreased systolic, diastolic, and MAP blood pressure | did not significantly influence either systolic, diastolic or MAP blood pressure | significantly reduced steady state levels of Aβ1-42 | no detectable change | selective decrease in β-secretase activity | no detectable change | prevented plasma accumulation of Aβ1-42 levels | lowering responses were found | nM levels | dose-dependent reduction of most of the detectable Aβ species | dose dependent decrease in Aβ1-42 content | did not significantly influence the amount of fluid intake | well-tolerated
2 | no change in the recovered compound | CCCCC(=O)N(Cc1ccc(-c2ccccc2-c2nnn[nH]2)cc1)[C@H](C(=O)O)C(C)C [Sodium valsartan] |  |  |  |  |  |  |  |  |  |  |  |  |  |  |  |  |  | 
